Results published in patent US10561658B2, “Thieno- and pyrrolopyrimidine analogues as anticancer agents and methods of use thereof” (UNIVERSITY OF MARYLAND, BALTIMORE COUNTY, priority 2015, dated 2020).

Legend:
Assay in all cases: Select Screen kinase profiling
Type in all cases: biochemical
LTK (TYK1) = LTK (TYK1) (Homo sapiens, UniProt P29376)
Excerpt: (§1) The thieno[3,2-d]pyrimidine scaffold has been used extensively in the design of kinase inhibitors.

JAK1 = JAK1 (Homo sapiens, UniProt P23458)
Excerpt: as §1

PIK3C2B = PIK3C2B (Homo sapiens, UniProt O00750)
Excerpt: as §1

TYK2 = TYK2 (Homo sapiens, UniProt P29597)
TYK2, sequence (P29597 whole entry): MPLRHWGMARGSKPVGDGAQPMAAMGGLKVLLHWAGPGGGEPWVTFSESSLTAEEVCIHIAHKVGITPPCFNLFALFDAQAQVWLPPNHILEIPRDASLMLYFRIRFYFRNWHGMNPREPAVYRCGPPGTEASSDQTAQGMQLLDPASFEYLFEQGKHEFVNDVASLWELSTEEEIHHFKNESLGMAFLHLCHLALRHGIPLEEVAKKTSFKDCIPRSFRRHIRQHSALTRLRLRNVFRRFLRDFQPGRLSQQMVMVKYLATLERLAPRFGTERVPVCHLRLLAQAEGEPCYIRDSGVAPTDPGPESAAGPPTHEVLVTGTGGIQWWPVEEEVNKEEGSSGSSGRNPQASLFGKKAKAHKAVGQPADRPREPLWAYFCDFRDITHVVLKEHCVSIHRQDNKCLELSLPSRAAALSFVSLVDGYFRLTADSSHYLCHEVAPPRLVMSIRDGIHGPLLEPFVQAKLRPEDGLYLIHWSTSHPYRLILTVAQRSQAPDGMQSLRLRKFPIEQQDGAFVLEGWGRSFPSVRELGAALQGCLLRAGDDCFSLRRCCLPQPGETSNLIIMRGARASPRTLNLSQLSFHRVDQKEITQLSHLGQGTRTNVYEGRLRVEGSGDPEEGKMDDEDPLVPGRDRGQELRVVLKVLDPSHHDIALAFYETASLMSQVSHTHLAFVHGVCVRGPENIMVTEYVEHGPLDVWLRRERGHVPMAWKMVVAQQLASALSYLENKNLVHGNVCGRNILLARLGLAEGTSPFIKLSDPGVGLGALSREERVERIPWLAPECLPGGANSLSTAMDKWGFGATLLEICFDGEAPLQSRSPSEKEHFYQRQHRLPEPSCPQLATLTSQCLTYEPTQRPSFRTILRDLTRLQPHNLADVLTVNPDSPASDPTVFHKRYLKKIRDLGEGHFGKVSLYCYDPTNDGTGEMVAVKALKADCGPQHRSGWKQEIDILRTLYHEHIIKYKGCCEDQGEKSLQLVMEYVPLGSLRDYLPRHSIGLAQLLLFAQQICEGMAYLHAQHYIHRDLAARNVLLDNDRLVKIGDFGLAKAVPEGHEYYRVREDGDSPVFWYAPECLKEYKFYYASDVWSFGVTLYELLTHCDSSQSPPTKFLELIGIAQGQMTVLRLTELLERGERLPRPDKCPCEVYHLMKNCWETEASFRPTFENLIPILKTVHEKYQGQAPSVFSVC
Excerpt: as §1

PIK3C3 = PIK3C3 (Homo sapiens, UniProt Q8NEB9)
PIK3C3, sequence (Q8NEB9 whole entry): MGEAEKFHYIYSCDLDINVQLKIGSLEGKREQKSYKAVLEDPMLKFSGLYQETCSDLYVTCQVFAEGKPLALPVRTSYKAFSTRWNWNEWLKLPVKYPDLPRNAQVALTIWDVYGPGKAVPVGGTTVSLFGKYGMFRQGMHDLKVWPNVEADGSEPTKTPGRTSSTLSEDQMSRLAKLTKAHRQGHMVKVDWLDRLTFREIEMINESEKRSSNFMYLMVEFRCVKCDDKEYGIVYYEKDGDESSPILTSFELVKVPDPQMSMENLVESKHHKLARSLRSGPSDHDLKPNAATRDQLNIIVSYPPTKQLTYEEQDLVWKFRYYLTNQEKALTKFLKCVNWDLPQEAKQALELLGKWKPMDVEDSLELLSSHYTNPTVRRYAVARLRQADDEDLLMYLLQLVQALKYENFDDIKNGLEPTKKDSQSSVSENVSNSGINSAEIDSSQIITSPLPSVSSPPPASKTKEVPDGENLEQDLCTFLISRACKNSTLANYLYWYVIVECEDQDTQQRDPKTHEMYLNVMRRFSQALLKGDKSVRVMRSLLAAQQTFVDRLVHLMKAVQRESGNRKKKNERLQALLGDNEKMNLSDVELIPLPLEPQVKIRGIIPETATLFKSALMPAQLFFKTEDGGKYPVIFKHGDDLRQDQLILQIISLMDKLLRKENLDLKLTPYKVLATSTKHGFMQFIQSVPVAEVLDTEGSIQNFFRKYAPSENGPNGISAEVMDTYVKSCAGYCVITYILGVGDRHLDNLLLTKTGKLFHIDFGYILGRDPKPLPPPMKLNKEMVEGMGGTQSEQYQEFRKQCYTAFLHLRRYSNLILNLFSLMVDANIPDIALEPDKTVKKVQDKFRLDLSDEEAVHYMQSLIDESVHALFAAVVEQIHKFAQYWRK
Excerpt: as §1

PIK3CD/PIK3R1 = PIK3CD/PIK3R1 (Homo sapiens, UniProt O00329)
PIK3CD/PIK3R1, sequence (O00329 whole entry): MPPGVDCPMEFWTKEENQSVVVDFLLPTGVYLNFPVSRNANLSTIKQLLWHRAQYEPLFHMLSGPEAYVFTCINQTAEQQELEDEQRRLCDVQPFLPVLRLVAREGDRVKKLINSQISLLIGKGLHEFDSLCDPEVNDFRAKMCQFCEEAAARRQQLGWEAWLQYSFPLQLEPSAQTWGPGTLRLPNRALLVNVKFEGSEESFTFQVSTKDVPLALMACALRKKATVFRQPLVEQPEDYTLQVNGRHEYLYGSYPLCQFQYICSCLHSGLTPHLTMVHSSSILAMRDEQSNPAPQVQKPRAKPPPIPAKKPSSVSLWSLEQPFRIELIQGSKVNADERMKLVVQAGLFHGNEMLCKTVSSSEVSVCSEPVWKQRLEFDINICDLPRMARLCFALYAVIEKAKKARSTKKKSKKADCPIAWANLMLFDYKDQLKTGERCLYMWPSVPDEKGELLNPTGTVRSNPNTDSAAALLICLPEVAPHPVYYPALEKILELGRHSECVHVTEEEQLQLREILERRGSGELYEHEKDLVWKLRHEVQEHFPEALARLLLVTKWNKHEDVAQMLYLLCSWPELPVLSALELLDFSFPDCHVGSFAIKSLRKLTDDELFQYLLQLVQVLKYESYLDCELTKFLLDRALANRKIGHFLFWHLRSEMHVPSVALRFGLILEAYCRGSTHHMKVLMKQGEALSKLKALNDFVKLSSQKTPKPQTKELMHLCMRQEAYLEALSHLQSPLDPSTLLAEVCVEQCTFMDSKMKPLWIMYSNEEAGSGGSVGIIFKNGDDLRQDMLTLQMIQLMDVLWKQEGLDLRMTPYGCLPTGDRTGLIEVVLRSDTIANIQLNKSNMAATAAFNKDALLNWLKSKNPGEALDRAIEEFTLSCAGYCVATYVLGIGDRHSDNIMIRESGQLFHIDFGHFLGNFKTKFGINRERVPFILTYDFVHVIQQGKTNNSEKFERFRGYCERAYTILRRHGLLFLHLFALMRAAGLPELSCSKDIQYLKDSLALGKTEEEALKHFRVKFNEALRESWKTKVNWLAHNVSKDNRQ
PIK3CD/PIK3R1, sequence (P27986 whole entry partner): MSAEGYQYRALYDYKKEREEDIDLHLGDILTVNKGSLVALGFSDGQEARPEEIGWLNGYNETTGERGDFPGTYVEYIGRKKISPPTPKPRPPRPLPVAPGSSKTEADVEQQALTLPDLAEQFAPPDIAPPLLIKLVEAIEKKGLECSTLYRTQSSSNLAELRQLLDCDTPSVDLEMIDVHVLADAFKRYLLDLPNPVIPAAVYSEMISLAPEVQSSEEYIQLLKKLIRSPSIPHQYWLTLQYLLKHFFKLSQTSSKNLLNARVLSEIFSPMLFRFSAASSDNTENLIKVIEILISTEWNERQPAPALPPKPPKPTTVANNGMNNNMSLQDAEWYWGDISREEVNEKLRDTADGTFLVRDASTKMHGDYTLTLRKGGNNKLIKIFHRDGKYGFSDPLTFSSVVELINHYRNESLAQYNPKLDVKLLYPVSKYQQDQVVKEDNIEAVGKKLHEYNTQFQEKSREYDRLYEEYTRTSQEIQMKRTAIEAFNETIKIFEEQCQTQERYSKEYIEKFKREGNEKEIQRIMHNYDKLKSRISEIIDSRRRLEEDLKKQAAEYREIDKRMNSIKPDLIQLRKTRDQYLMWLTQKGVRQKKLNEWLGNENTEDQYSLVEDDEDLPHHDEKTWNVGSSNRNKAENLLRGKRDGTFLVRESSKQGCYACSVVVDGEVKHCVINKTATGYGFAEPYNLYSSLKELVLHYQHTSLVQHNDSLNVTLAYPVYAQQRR
Excerpt: as §1

FRAP1 (mTOR) = FRAP1 (mTOR) (Homo sapiens, UniProt P42345)
Excerpt: as §1

Measured: inhibition at 5 µM

LTK (TYK1), sequence (P29376 17-864): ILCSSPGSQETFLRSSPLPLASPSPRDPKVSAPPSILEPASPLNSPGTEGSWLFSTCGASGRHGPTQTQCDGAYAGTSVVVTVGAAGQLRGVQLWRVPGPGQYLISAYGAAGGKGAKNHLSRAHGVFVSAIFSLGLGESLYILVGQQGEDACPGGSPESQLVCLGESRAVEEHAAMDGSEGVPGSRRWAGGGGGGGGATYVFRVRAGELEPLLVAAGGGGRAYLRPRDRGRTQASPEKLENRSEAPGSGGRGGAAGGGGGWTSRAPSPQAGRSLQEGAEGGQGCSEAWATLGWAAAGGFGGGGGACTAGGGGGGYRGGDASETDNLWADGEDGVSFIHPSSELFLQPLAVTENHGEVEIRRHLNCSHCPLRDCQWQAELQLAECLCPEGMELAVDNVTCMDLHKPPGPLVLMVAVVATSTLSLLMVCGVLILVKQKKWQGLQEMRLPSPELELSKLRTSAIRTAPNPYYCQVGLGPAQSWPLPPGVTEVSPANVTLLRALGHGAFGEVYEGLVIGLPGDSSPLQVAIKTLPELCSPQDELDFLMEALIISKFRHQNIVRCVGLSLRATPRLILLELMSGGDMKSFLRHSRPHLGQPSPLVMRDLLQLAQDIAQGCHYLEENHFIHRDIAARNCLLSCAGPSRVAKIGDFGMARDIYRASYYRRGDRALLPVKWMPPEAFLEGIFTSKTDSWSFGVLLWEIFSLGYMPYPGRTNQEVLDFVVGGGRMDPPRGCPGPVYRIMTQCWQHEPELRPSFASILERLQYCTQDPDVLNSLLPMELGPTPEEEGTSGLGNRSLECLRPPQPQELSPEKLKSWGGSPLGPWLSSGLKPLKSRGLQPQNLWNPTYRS

Clc1nc(Cl)c2sccc2n1 [Compound 1, 2,4-Dichlorothieno[3,2-d]pyrimidine]
< 40%: all assays above
